Reference: ChEMBL document CHEMBL4732235, “Design, synthesis, and evaluation of transition-state analogs as inhibitors of the bacterial quorum sensing autoinducer synthase CepI” (Bioorg Med Chem Lett, 2021)
Active and inactive are the calls of the source. The rule behind the calls is not given here.

How the values were obtained:
[1] = Inhibition of Burkholderia cenocepacia synthase CepI assessed as liberation of ACP thiol using SAM as substrate by DCPIP method
Burkholderia cenocepacia [2] = test: Inhibition of Burkholderia cenocepacia synthase CepI assessed as liberation of ACP thiol using SAM as substrate at 100 uM by DCPIP method
Burkholderia cenocepacia [3] = test: Binding affinity to Burkholderia cenocepacia synthase CepI assessed as stabilization of protein in presence of trypsin at 50 uM by standard colorimetric trypsin assay

IC50 [1] [µM]	inhibition (Burkholderia cenocepacia [2])	Activity (Burkholderia cenocepacia [3])	SMILES
100	Active	–	CCCCCCCC(=O)N[C@@H]1C[C@H](CSC[C@H]2O[C@@H](n3cnc4c(N)ncnc43)[C@H](O)[C@@H]2O)OC1=O
1	Active	Active	CCCCCCCC(=O)N[C@H]1C[C@@H](CSC[C@H]2O[C@@H](n3cnc4c(N)ncnc43)[C@H](O)[C@@H]2O)OC1=O
